Patent US9303061B2, “Spiro compounds as Hepatitis C virus inhibitors” (Sunshine Luke Pharma Co., Ltd., priority 2011, dated 2016)

Legend:
[1] = tested on: HCV GT1b replicon cells; assay: HCV replicon assay, GT1b replicon cells (luciferase reporter / NEO gene qPCR); format: cell-based; conditions: EC50 range against HCV 1b genotype, 72 hours incubation
Method: (§1) An HCV Replicon assay was utilized in the present disclosure, and was prepared, developed and validated as described in Science, 1999, 285 (5424), 110-3 and J. Virol., 2003, 77 (5), 3007-19.
(§2) HCV GT1a, GT1b and GT2a replicon cells were used to test the currently described compound series as well as wild-type cells HCV 1b and resistant cells Y93H, L31F, P32L and 1302V. GT1a, GT1b and GT2a are HCV Replicon System which is transfected HCV 1a, 1b, 2a genotype respectively. The system containing G418 resistance gene NEO and Luciferase Reporter Gene can be used to determine the level of HCV replication, and evaluate the effects of the compounds inhibiting HCV replication, by using a real-time quantitative polymerase chain reaction (qPCR) method to detect NEO, and chemiluminescence method to test Luciferase Reporter Gene.
(§3) 1. Testing EC50 of the Compounds by Luciferase Assay
(§4) The GT1a cells and GT1b cells were seeded into 96-well plates (8,000 cells in 125 μl/well) respectively; each compound was diluted to desired concentration using 5-fold serial dilutions protocol, 10 dose in duplicate, and added to wells with POD™ 810 Plate Assembler. The final concentration of DMSO was 0.5%; the plates were incubated in a CO2 incubator for 72 hours; after that, 40 μl of Luciferase assay substrate (Promega Bright-Glo) was added to each well, and detected by a chemiluminescence detection system (Topcount Microplate Scintillation and Luminescence Counter) 5 minutes later; data analysis.
(§5) 2. Testing EC50 of the Compounds by Detecting Antibiotic G418 Resistance Gene NEO Gene
(§6) The GT1a cells and GT1b cells were seeded into 96-well plates (8,000 cells in 125 μl/well) respectively; each compound was diluted to desired concentration using 5-fold serial dilutions protocol, 10 dose in duplicate, and added to wells with POD™ 810 Plate Assembler, the final concentration of DMSO was 0.5%; the cells were incubated in a CO2 incubator for 72 hours; quantitative PCR. • Sample preparation: the supernatant was removed, 100 μl of FCW buffer solution was added to each well, washed carefully and discarded the solution; 50 μl of lysate FCP was added to each well, the cells was lysed as PCR template and PCR template was diluted with DEPC water as sample template. • Quantitative PCR: preparation of reaction mixture according to PCR system; the reaction mixture was dispensed into a 384-well PCR reaction plate (specially for quantitative); and a standard template which was diluted in proportion was distributed into the plate; and the sample template was distributed into the plate; then the 384-well plate was sealed with closure plate membrane; the […] PCR machine was operated by procedures; data analysis.
(§7) 3. Data processing: EC50 values of compounds were analyzed by GRAPHPAD PRISM® software.

[2] = tested on: HCV GT1a replicon cells; assay: HCV replicon assay, GT1a replicon cells (luciferase reporter / NEO gene qPCR); format: cell-based; conditions: EC50 range against HCV 1a genotype, 72 hours incubation
Method: as §1, §2, §3, §4, §5, §6, §7

Row | Structure (SMILES) | EC50 ([1]; Hepatitis C virus, GT1B, 72 h) [nM] | EC50 ([2]; Hepatitis C virus, GT1A) [nM] | EC50 [1] [nM] | EC50 [2] [nM]
1 | COC(=O)N[C@H](C(=O)N1CCC[C@H]1c1nc2ccc(-c3ccc(-c4ccc5nc([C@@H]6CCCN6C(=O)[C@@H](NC(=O)OC)C(C)C)[nH]c5c4)c4c3CC3(CCCCC3)C4=O)cc2[nH]1)C(C)C [Example 5] | 0.101 to 1 | 0.001 to 0.1 |  | 
2 | COC(=O)N[C@H](C(=O)N1CC2(CC2)C[C@H]1c1ncc(-c2ccc(-c3ccc(-c4ccc(-c5cnc([C@@H]6CC7(CC7)CN6C(=O)[C@@H](NC(=O)OC)C(C)C)[nH]5)cc4)c4c3CC3(CCCC3)C4)cc2)[nH]1)C(C)C [Example 41] | > 10 | 1 to 10 |  | 
3 | COC(=O)N[C@H](C(=O)N1CCC[C@H]1c1nc2ccc(-c3ccc(-c4ccc5nc([C@@H]6CCCN6C(=O)[C@@H](NC(=O)OC)C(C)C)[nH]c5c4)c4c3CC3(CCC(C)CC3)C4=O)cc2[nH]1)C(C)C (stereo partly shown) [Example 3] | 0.001 to 0.1 | 0.001 to 0.1 |  | 
4 | COC(=O)N[C@H](C(=O)N1CCC[C@H]1c1ncc(-c2ccc(-c3ccc(-c4ccc5nc([C@@H]6CCCN6C(=O)[C@@H](NC(=O)OC)C(C)C)[nH]c5c4)c4c3CC3(CCCC3)C4)cc2)[nH]1)C(C)C [Example 23] | 0.001 to 0.1 | 0.001 to 0.1 |  | 
5 | COC(=O)N[C@H](C(=O)N1C(c2ncc(-c3ccc(-c4ccc(-c5ccc6nc([C@@H]7CC8CC8N7C(=O)[C@@H](NC(=O)OC)C(C)C)[nH]c6c5)c5c4CC4(CCCC4)C5)cc3)[nH]2)CC2CC21)C(C)C (stereo partly shown) [Example 54] | 0.101 to 1 | 0.001 to 0.1 |  | 
6 | COC(=O)N[C@H](C(=O)N1CCC[C@H]1C(=O)Nc1ccc(-c2ccc(-c3ccc(NC(=O)[C@@H]4CCCN4C(=O)[C@@H](NC(=O)OC)C(C)C)cc3)c3c2CC2(CCCC2)C3)cc1)C(C)C [Example 39] | 0.101 to 1 | 0.001 to 0.1 |  | 
7 | COC(=O)N[C@H](C(=O)N1CCC[C@H]1c1nc2ccc(-c3ccc(-c4ccc5nc([C@@H]6CCCN6C(=O)[C@@H](NC(=O)OC)C(C)C)[nH]c5c4)c4c3CC3(CCCCC3)C4)cc2[nH]1)C(C)C [Example 6] | 0.001 to 0.1 | 0.001 to 0.1 |  | 
8 | COC(=O)N[C@H](C(=O)N1C[C@@H](C)C[C@H]1c1ncc(-c2ccc(-c3ccc(-c4cnc([C@@H]5C[C@H](C)CN5C(=O)[C@@H](NC(=O)OC)C(C)C)[nH]4)c4c3CC3(CCCCC3)C4)cc2)[nH]1)C(C)C [Example 18] |  | 0.001 to 0.1 | > 10 | 
9 | COC(=O)N[C@H](C(=O)N1CCC[C@H]1c1ncc(-c2ccc3cc(-c4ccc(-c5cnc([C@@H]6CCCN6C(=O)[C@@H](NC(=O)OC)C(C)C)[nH]5)c5c4CC4(CCCCC4)C5)ccc3c2)[nH]1)C(C)C [Example 49] | 1 to 10 | 0.001 to 0.1 |  | 
10 | COC(=O)NC(C(=O)N1CC2(C[C@H]1c1ncc(-c3ccc(-c4ccc(-c5cnc([C@@H]6CCCN6C(=O)[C@@H](NC(=O)OC)C(C)C)[nH]5)c5c4CC4(CCCC4)C5)cc3)[nH]1)OCCO2)C(C)C (stereo partly shown) [Example 51] | > 10 | 0.001 to 0.1 |  | 
11 | COC(=O)N[C@H](C(=O)N1C[C@@H](C)C[C@H]1c1ncc(-c2ccc(-c3ccc(-c4ccc(-c5cnc([C@@H]6C[C@H](C)CN6C(=O)[C@@H](NC(=O)OC)C(C)C)[nH]5)cc4)c4c3CC3(CCCC3)C4)cc2)[nH]1)C(C)C [Example 40] | 1 to 10 | 0.001 to 0.1 |  | 
12 | COC(=O)N[C@H](C(=O)N1CCCC[C@H]1c1ncc(-c2ccc(-c3ccc(-c4cnc([C@@H]5CCCCN5C(=O)[C@@H](NC(=O)OC)C(C)C)[nH]4)c4c3CC3(CCCC3)C4)cc2)[nH]1)C(C)C [Example 45] | > 10 | 0.001 to 0.1 |  | 
13 | COC(=O)N[C@H](C(=O)N1CCC[C@H]1c1ncc(-c2ccc(-c3ccc(-c4cnc([C@@H]5CCCN5C(=O)[C@@H](NC(=O)OC)C(C)C)[nH]4)c4c3CC3(CCCC3)C4)s2)[nH]1)C(C)C [Example 17] | > 10 | 0.101 to 1 |  | 
14 | COC(=O)N[C@H](C(=O)N1CCC[C@H]1c1ncc(-c2ccc(-c3ccc(-c4ccc(-c5cnc([C@@H]6CCCN6C(=O)[C@@H](NC(=O)OC)C(C)C)[nH]5)cc4)c4c3CC3(CCCC3)C4)cc2)[nH]1)C(C)C [Example 38] | > 10 | 0.101 to 1 |  | 
15 | COC(=O)N[C@H](C(=O)N1C[C@@H](C)C[C@H]1c1ncc(-c2ccc(-c3ccc(-c4cnc([C@@H]5C[C@H](C)CN5C(=O)[C@@H](NC(=O)OC)C(C)C)[nH]4)c4c3CC3(CCCCC3)C4)cc2)[nH]1)C(C)C [Example 20] |  |  | 0.101 to 1 | 0.001 to 0.1
16 | COC(=O)N[C@H](C(=O)N1C[C@H](F)C[C@H]1c1ncc(-c2ccc(-c3ccc(-c4cnc([C@@H]5C[C@@H](F)CN5C(=O)[C@@H](NC(=O)OC)C(C)C)[nH]4)c4c3CC3(CCCC3)C4)cc2)[nH]1)C(C)C [Example 29] | 0.001 to 0.1 | 0.001 to 0.1 |  | 
17 | CCC(C)[C@H](NC(=O)OC)C(=O)N1CCC[C@H]1c1nc2ccc(-c3ccc(-c4ccc(-c5cnc([C@@H]6CCCN6C(=O)[C@@H](NC(=O)OC)C(C)C)[nH]5)cc4)c4c3CC3(CCCC3)C4)cc2[nH]1 (stereo partly shown) [Example 11] | 0.001 to 0.1 | 0.001 to 0.1 |  | 
18 | COC(=O)N[C@H](C(=O)N1CCC[C@H]1c1ncc(C#Cc2ccc(C#Cc3cnc([C@@H]4CCCN4C(=O)[C@@H](NC(=O)OC)C(C)C)[nH]3)c3c2CC2(CCCC2)C3=O)[nH]1)C(C)C [Example 2] | > 10 | 0.101 to 1 |  | 
19 | COC(=O)N[C@H](C(=O)N1CCC[C@H]1c1ncc(-c2ccc(-c3ccc(-c4cnc([C@@H]5CCCN5C(=O)[C@@H](NC(=O)OC)C(C)C)[nH]4)c4c3CC3(CCCCC3)C4)cc2)[nH]1)C(C)C [Example 50] | 1 to 10 | 0.001 to 0.1 |  | 
20 | COC(=O)N[C@H](C(=O)N1CCC[C@H]1c1nc(-c2ccc(-c3ccc(-c4ccc(-c5cnc([C@@H]6CCCN6C(=O)[C@@H](NC(=O)OC)C(C)C)[nH]5)cc4)c4c3C(=O)C3(CCCC3)C4)cc2)c[nH]1)C(C)C [Example 1] | 1 to 10 | 0.001 to 0.1 |  | 
21 | COC(=O)N[C@H](C(=O)N1CC(F)(F)C[C@H]1c1ncc(-c2ccc(-c3ccc(-c4cnc([C@@H]5CC(F)(F)CN5C(=O)[C@@H](NC(=O)OC)C(C)C)[nH]4)c4c3CC3(CCCC3)C4)cc2)[nH]1)C(C)C [Example 15] | > 10 | 0.001 to 0.1 |  | 
22 | COC(=O)N[C@H](C(=O)N1CCC[C@H]1c1nc2ccc(-c3ccc(-c4ccc5nc([C@@H]6CCCN6C(=O)[C@@H](NC(=O)OC)C(C)C)[nH]c5c4)c4c3CC3(CCC(C)CC3)C4)cc2[nH]1)C(C)C [Example 4] | 0.001 to 0.1 | 0.001 to 0.1 |  | 
23 | COC(=O)N[C@H](C(=O)N1CCCC1C(=O)Nc1cccc(-c2ccc(-c3ccc(-c4cnc([C@@H]5CCCN5C(=O)[C@@H](NC(=O)OC)C(C)C)[nH]4)cc3)c3c2CC2(CCCC2)C3)c1)C(C)C (stereo partly shown) [Example 56] | 1 to 10 | 0.001 to 0.1 |  | 
24 | COC(=O)N[C@H](C(=O)N1CCC[C@H]1c1ncc(C#Cc2ccc(C#Cc3cnc([C@@H]4CCCN4C(=O)[C@@H](NC(=O)OC)C(C)C)[nH]3)c3c2CC2(CCCC2)C3)[nH]1)C(C)C [Example 8] | 1 to 10 | 0.001 to 0.1 |  | 
25 | COC(=O)N[C@H](C(=O)N1CCC[C@H]1c1ncc(-c2ccc(-c3ccc(-c4cnc([C@@H]5CCCN5C(=O)[C@@H](NC(=O)OC)C(C)C)[nH]4)c4c3C(=O)C3(CCCC3)C4)cc2)[nH]1)C(C)C [Example 37] | 1 to 10 | 1 to 10 |  | 
26 | COC(=O)N[C@H](C(=O)N1CCC[C@H]1c1ncc(-c2ccc(-c3ccc(-c4cnc([C@@H]5CCCN5C(=O)[C@@H](NC(=O)OC)c5ccccc5)[nH]4)c4c3CC3(CCCC3)C4)cc2)[nH]1)c1ccccc1 [Example 16] | > 10 | 0.001 to 0.1 |  | 
27 | COC(=O)N[C@H](C(=O)N1CCC[C@H]1c1nc2ccc(-c3ccc(-c4ccc5nc([C@@H]6CCCN6C(=O)[C@@H](NC(=O)OC)C(C)C)[nH]c5c4)c4c3CC3(CCCC3)C4)cc2[nH]1)C(C)C [Example 22] | 0.001 to 0.1 | 0.001 to 0.1 |  | 
28 | COC(=O)N[C@H](C(=O)N1CCC[C@H]1c1ncc(-c2ccc(-c3ccc(-c4cnc([C@@H]5CCCN5C(=O)[C@@H](NC(=O)OC)C(C)C)[nH]4)c4c3CC3(CCCC3)C4)cc2)[nH]1)C(C)C [Example 14] | > 10 | 0.001 to 0.1 |  | 
29 | COC(=O)N[C@H](C(=O)N1CCC[C@H]1c1ncc(-c2ccc(-c3ccc(-c4ccc5nc([C@@H]6CCCN6C(=O)[C@@H](NC(=O)OC)C(C)C)[nH]c5c4)c4c3CC3(CCCC3)C4)nc2)[nH]1)C(C)C [Example 21] | 1 to 10 | 0.001 to 0.1 |  | 
